Experimental data reported in US5169863A, “Hypersphyxia-causing methods” (K.K. Ueno Seiyaku Oyo Kenkyujo, priority 1988, dated 1992).

Experiments:
[1] = changing rate of blood pressure and heart rate by intravenous injection in anesthetized rats; format: in vivo, Wister male rats; settings: for change in vivo at 1 mg/kg: Rattus norvegicus; for changing rate (%) of blood pressure / changing rate (%) of heart rate: Table 2
Protocol: (blood pressure, heart rate increasing action by intravenous injection) Wister male rats (8 weeks old) were used as test animals. The rats were applied to anesthesia by intraperitoneal administration with 1.25 g/kg of urethane. The blood pressure was determined by inserting a polyethylene tube into a femoral artery, which was connected with a pressure transducer. The heart rate was determined from R wave of electrocardiograms (ECG) induced by standard limb lead II with a tachometer. Each test compound was dissolved in ethanol and intravenously administered to rats in 1 mg/kg diluted with Ringer's solution just before use. The maximum concentration of ethanol was 2 percent. An ethanol-containing Ringer without any test compound was used as a control to confirm the influence of the ethanol in each experiment. Each changing rate (%) in the blood pressure and heart rate before and after administration was determined, and the average of 3-4 experiments was shown in Table 1. Changing rates of blood pressure and heart rate were determined in the same manner as described in Example 1 except that the test compounds 60, 61 and 62 were used in different concentrations instead of the test compounds 1-55.

[2] = progressing a breath (change rate of breath rate); format: in vivo, Wister male rats; settings: tail vein, rats; for change in vivo at 1 mg/kg: Rattus norvegicus, iv
Protocol: Wister male rats (8 weeks old) were applied to anesthesia by intraperitoneal administration with 1.25 g/kg of urethane. A pick-up for breath was fixed on a top of a rat's nose, and the breath curve was recorded on a polygraph while the breath rate was counted with a tachometer.
Each test compound was dissolved in ethanol and administered to rats through a tale vein in 1 mg/kg as diluted with Ringer's solution just before use. The maximum concentration of ethanol was 2 percent. Ringers solution containing ethanol but not containing test compound was administered at every experiment as a control. The change rates (%) of the breath rate before and after administration were determined, and evaluated as progressing activity of breath.

[3] = 1 (mg/kg), Table 1, read-out: changing rate of blood pressure
[4] = 1 (mg/kg), Table 1, read-out: changing rate of heart rate

Compound	change in vivo at 1 mg/kg [1, 3] [%]	change in vivo at 1 mg/kg [2] [%]	change in vivo at 1 mg/kg [1, 4] [%]	further results
CCCCCC(=O)CC[C@H]1[C@H](O)CC(=O)[C@@H]1CC(=O)CCCCC(=O)OCC (relative stereo) [Compound 8, (±) 13,14-dihydro-6,15-diketo-PGE1 ethyl ester]	8	65		
CCCCCC(=O)CC[C@H]1[C@H](O)CC(=O)[C@@H]1CCCCCCC(=O)O [Compound 1, 13,14-dihydro-15-keto-PGE1, reference compound]	-6	34	6	
CCCCCC(=O)CC[C@H]1[C@H](O)CC(=O)[C@@H]1CCCCC=CC(=O)OC [Compound 3, 13,14-dihydro-15-keto-Δ^2 -PGE1 methyl ester]	32		43	
CCCCCCCC(=O)CC[C@H]1[C@H](O)CC(=O)[C@@H]1CCCCCCC(=O)OC [Compound 4, 13,14-dihydro-15-keto-20-ethyl-PGE1 methy ester]	6	48	33	
CCCCCC(=O)CC[C@H]1[C@H](O)CC(=O)[C@@H]1CC(=O)CCCCC(=O)O [Compound 5, 13,14-dihydro-6,15-diketo-PGE1, reference compound]	-4	4	0	
CCCCCC(=O)CC[C@H]1[C@H](O)CC(=O)[C@@H]1CC(=O)CCCCC(=O)OC [Compound 6, 13,14-dihydro-6,15-diketo-PGE1 methyl ester]	3	21	9	
CCCCCC(=O)CC[C@H]1[C@H](O)CC(=O)[C@@H]1CC(=O)CCCCC(=O)OCCCC [Compound 9, 13,14-dihydro-6,15-diketo-PGE1 n-butyl ester]	2	26	26	
CCCCC(C)C(=O)CC[C@H]1[C@H](O)CC(=O)[C@@H]1CC(=O)CCCCC(=O)OC (some centres unmarked) [Compound 10, 13,14-dihydro-6,15-diketo-16R,S-methyl-PGE1 methyl ester]	22	63	37	
CCCCC(C)C(=O)CC[C@H]1[C@H](O)CC(=O)[C@@H]1CC(=O)CCCCC(=O)OCC (some centres unmarked) [Compound 11, 13,14-dihydro-6,15-diketo-16R,S-methyl-PGE1 ethyl ester]	23	34	18	
CCCCC(C)(C)C(=O)CC[C@H]1[C@H](O)CC(=O)[C@@H]1CC(=O)CCCCC(=O)OCC [Compound 12, 13,14-dihydro-6,15-diketo-16,16-dimethyl-PGE1 ethyl ester]	17	44	38	
CCCCC(F)C(=O)CC[C@H]1[C@H](O)CC(=O)[C@@H]1CC(=O)CCCCC(=O)OCC (some centres unmarked) [Compound 13, 13,14-dihydro-6,15-diketo-16R,S-fluoro-PGE1 ethyl ester]	11	53	20	
COC(=O)CCCCC(=O)C[C@H]1C(=O)C[C@@H](O)[C@@H]1CCC(=O)CCCC(C)C [Compound 14, 13,14-dihydro-6,15-diketo-19-methyl-PGE1 methyl ester]	12	33	22	
COC(=O)CCCCC(=O)C[C@H]1C(=O)C[C@@H](CO)[C@@H]1CCC(=O)CCCC(C)C [Compound 16, 13,14-dihydro-6,15-diketo-11-dehydroxy-11R-hydroxymethyl-19-methyl-PGE1 methyl ester]	26		25	
CCCCCC(=O)CC[C@H]1[C@H](C)CC(=O)[C@@H]1CC(=O)CCCCC(=O)OC [Compound 17, 13,14-dihydro-6,15-diketo-11-dehydroxy-11R-methyl-PGE1 methyl ester]	46		58	
CCCCC(F)C(=O)CC[C@H]1[C@H](C)CC(=O)[C@@H]1CC(=O)CCCCC(=O)OCC (stereo partly drawn) [Compound 19, 13,14-dihydro-6,15-diketo-16R,S-fluoro-11R-dehydroxy-11R-methyl-PGE1 ethyl ester]	45		51	
CCCCCC(=O)CC[C@H]1[C@H](O)CC(=O)[C@@H]1C/C=C\CCCC(=O)O [Compound 20, 13,14-dihydro-15-keto-PGE2, reference compound]	-15	12	0	blood pressure effect (in words) ([1]; Example 1 conclusion): blood pressure decreasing effect
CCCCCC(=O)CC[C@H]1[C@H](O)CC(=O)[C@@H]1C/C=C\CCCC(=O)OCCC [Compound 23, 13,14-dihydro-15-keto-PGE2 n-propyl ester]	5	37	4	
CCCCCC(=O)CC[C@H]1[C@H](O)CC(=O)[C@@H]1C/C=C\CCCC(=O)OCCCC [Compound 24, 13,14-dihydro-15-keto-PGE2 n-butyl ester]	5	41	5	
CCCCCC(=O)CC[C@H]1[C@H](O)CC(=O)[C@@H]1C/C=C\CCCC(=O)OCc1ccccc1 [Compound 25, 13,14-dihydro-15-keto-PGE2 benzyl ester]	2	22	5	
CCCCCC(=O)CC[C@H]1[C@H](O)CC(=O)[C@@H]1C/C=C\CCCC(=O)OCCO [Compound 26, 13,14-dihydro-15-keto-PGE2 hydroxyethyl ester]				changing rate of blood pressure ([1]; 0.2, Table 1): 0%; changing rate of heart rate ([1]; 0.2, Table 1): 0%; changing rate of blood pressure ([1]; 0.5, Table 1): 0%; changing rate of heart rate ([1]; 0.5, Table 1): 0%; changing rate of blood pressure ([1]; 1 (mg/kg), Table 1): +2%; changing rate of heart rate ([1]; 1 (mg/kg), Table 1): +7%; progressing activity % of breath ([2]; 1 mg/kg): +22%
CCCCCC(F)C(=O)CC[C@H]1[C@H](O)CC(=O)[C@@H]1C/C=C\CCCC(=O)OC (some centres unmarked) [Compound 39, 13,14-dihydro-15-keto-16R,S-fluoro-20-methylPGE2 methyl ester]	20		47	
COCCCCC(C)(C)C(=O)CC[C@H]1[C@H](O)CC(=O)[C@@H]1C/C=C\CCCC(=O)OC [Compound 48, 13,14-dihydro-15-keto-16,16-dimethyl-20-methoxy-PGE2 methyl ester]	15		30	
CCCCCCCC(=O)CC[C@H]1[C@H](O)CC(=O)[C@@H]1C/C=C\CCCC(=O)OCC [Compound 52, 13,14-dihydro-15-keto-20-ethyl-PGE2 ethyl ester]	13		0	
CCCCCCCC(=O)CC[C@H]1[C@H](C)CC(=O)[C@@H]1C/C=C\CCCC(=O)OC [Compound 53, 13,14-dihydro-15-keto-20-ethyl-11-dehydroxy-11R-methyl-PGE2 methyl ester]	17		20	
CCCCCCCCC(=O)CC[C@H]1[C@H](O)CC(=O)[C@@H]1C/C=C\CCCC(=O)OC [Compound 54, 13,14-dihydro-15-keto-20-n-propyl-PGE2 methyl ester]	18		18	
CCCCC(F)C(=O)/C=C/[C@H]1[C@H](O)CC(=O)[C@@H]1C/C=C\CCCC(=O)OC (some centres unmarked) [Compound 55, 15-keto-16R,S-fluoro-PGE2 methyl ester]	31		58	
CCCCC[C@H](O)/C=C/[C@H]1[C@H](O)CC(=O)[C@@H]1CCCCCCC(=O)O [Compound 56, PGE1, reference compound]	-54		10	
CCCCCCC(=O)CC[C@H]1[C@H](O)CC(=O)[C@@H]1CCCCCCC(=O)OC [Compound 60, 13,14-dihydro-15-keto-20-methyl-PGE1 methyl ester]				changing rate (%) of blood pressure ([1]; 0.1 mg/kg): +17%; changing rate (%) of heart rate ([1]; 0.1 mg/kg): +14%; changing rate (%) of blood pressure ([1]; 1 mg/kg): +13%; changing rate (%) of heart rate ([1]; 1 mg/kg): +38%
CCCCC(F)(F)C(=O)CC[C@H]1[C@H](O)CC(=O)[C@@H]1C/C=C\CCCC(=O)OC [Compound 61, 13,14-dihydro-15-keto-16,16-difluoro-PGE2 methyl ester]				changing rate (%) of blood pressure ([1]; 0.01 mg/kg): +13%; changing rate (%) of heart rate ([1]; 0.01 mg/kg): +14%; changing rate (%) of blood pressure ([1]; 0.1 mg/kg): +15%; changing rate (%) of heart rate ([1]; 0.1 mg/kg): +30%; changing rate (%) of blood pressure ([1]; 1 mg/kg): +27%; changing rate (%) of heart rate ([1]; 1 mg/kg): +26%
CCOC(=O)CCCCC(=O)C[C@H]1C(=O)C[C@@H](O)[C@@H]1CCC(=O)CCC(C)CC (some centres unmarked) [Compound 62, 13,14-dihydro-6,15-diketo-18-methyl-PGE1 ethyl ester]				changing rate (%) of heart rate ([1]; 0.1 mg/kg): +6%; changing rate (%) of heart rate ([1]; 1 mg/kg): +13%
